Columns and labels:
[1] = test system: glyphosate-tolerant variety (RR1445) of Coker 312; assay: Glyphosate-induced male sterility in cotton, field plots scored for fertility (Example 1); type: in vivo
Excerpt: A test was designed to determine whether glyphosate-induced male sterility in cotton could be reliably maintained throughout the blooming period.
The plant material used was a glyphosate-tolerant variety (RR1445) of Coker 312 obtained from Monsanto Co. (St. Louis, Mo.). Seed was planted in 25 foot long, single row plots, with a 38 inch row spacing. The test was replicated four times with treatments applied as follows:
Treatment 1: Single spray at 30 days post planting (“30 DPP”);
Treatment 2: Multiple sprays beginning at 30 DPP and repeating every 10 days (“30 DPP+10 D”)
Treatment 3: Multiple sprays beginning at 30 DPP and repeating every 20 days (“30 DPP+20 D”)
Treatment 4: Unsprayed control.
The sprays consisted of a single 2% solution of Roundup® brand glyphosate (41% formulation), which was equivalent to 20 ml/l, or 22/3 oz/gal. This solution was used in all spray treatments, and was applied to runoff. […] At the onset of bloom (mid-July) and through mid September, each plot was scored for fertility approximately every 5 days as follows:
0=Complete sterility; no pollen present upon rubbing anthers between fingers;
1=Practically no pollen present upon rubbing anthers, no self pollination possible because anthers never shed pollen, male-sterile for all practical purposes;
2=Very little pollen upon rubbing anthers, no natural pollen shed, no self pollination possible, male sterile for all practical purposes;
3=Some pollen present when anthers rubbed, a minimal amount of natural pollen shed on lower anthers, a very small amount of self pollination possible with insect activity;
4=Anthers shed pollen in sufficient amounts at all anther levels to self pollinate;
5=Anthers shed pollen in normal amounts from all anthers.

[2] = test system: Paymaster 145 RR; assay: Crossing block with hand pollination, boll and seed set (Example 2); type: in vivo, cotton; details: glyphosate applied as in Example 1 (about 64 oz/acre); end of season
Excerpt: A small isolated crossing block was planted with variety Paymaster 145 RR. Glyphosate was applied as indicated in the previous Example. The intention was to maintain male sterility and to cross pollinate (manually) with pollen from another Paymaster variety to produce actual F1 hybrid seed.

[3] = test system: PM 2200 RR and PM 2326 RR; assay: Spray rate test, fertility scores and seed set after hand pollination (Example 3); type: in vivo, cotton
Experimental: A further test was conducted using the varieties PM 2200 RR and PM 2326 RR, in which 4 levels of glyphosate spray rates were applied at 14 day intervals, beginning at 31 days post planting. The rates used were: 0, 16, 24 and 32 ounces/acre of glyphosate. Fertility scores were taken at roughly 2 day intervals during the season to follow male sterility development. At the same time hand pollination was done on 10 flowers in each treatment (all 3 replicates), also at 2 day intervals for a total of “10 crossing days”. This was to determine the amount of seed set under the various spray regimes and thus infer the degree of female sterility, if any, being induced by the glyphosate applications.

[4] = test system: DP 5414 RR; assay: Effect of glyphosate on soybean yield, male sterility assessed from yield (Example 4); type: in vivo
Excerpt: (§1) The glyphosate-tolerant soybean varieties DP 7220 RR, DP 6299 RR and DP 5414 RR were planted in replicated four row plots 18 feet in length, at planting and during growing season, end trimmed to 14.5 feet just prior to harvest to remove end effects in yield. Glyphosate (RoundUp® Ultra Max, Monsanto Co.) was applied starting 14 days post planting, with 5 applications at approximately 10 day intervals thereafter. The sprays consisted of a single 2% solution of the RoundUp® Ultra Max commercial glyphosate product, which is a 50% solution of glyphosate. This is equivalent to 16.25 ml/l or 2.17 oz/gal. This solution was used for all treatments, and was applied to runoff. Four rates of application were used: 0 ounces/acre (oz/acre) (control), 13.5 oz/acre (equivalent to the 16 oz/acre of the 41% formulation used in Examples 1-3), 26 oz/acre (equivalent to the 32 oz/acre used for Examples 1-3) and 52 oz/acre (equivalent to the 64 oz/acre used for Examples 1-3).
(§2) The two middle rows of each plot were harvested for yield, calculated in bushels/acre (bu/acre) based on this land area. Statistical significance was determined using a standard single-tailed T-test. Male sterility was assessed based on the yield, because soybean is a […] flower (the flowers never open until after fertilization), and thus is almost completely self-pollinated. A statistically significant reduction in the yield would therefore correlate with a decreased rate of fertilization. Pollen production was not assessed in this experiment, but based on the observations made in cotton (Examples 1-3), it is reasonable to conclude that the decrease in fertilization rate in soybeans was due to a decrease in viable pollen production.

[5] = test system: DP 6299 RR; assay: as above; type: in vivo
Excerpt: as §1, §2

[6] = test system: DP 7220 RR; assay: as above; type: in vivo
Excerpt: as §1, §2

Compound: O=C(O)CNCP(=O)(O)O [glyphosate]
- Fertility score ([1]; 30 DPP (single spray at 30 days post planting), 2% Roundup about 64 oz/acre, 58 days post planting, score 0 complete sterility to 5 normal pollen, practical sterility 2.75 or below): 1.00
- Fertility score ([1]; 30 DPP + 10 D (sprays from 30 DPP every 10 days), 2% Roundup about 64 oz/acre, 58 days post planting): 1.00
- Fertility score ([1]; 30 DPP + 10 D, 62 days post planting): 1.00
- Fertility score ([1]; 30 DPP + 10 D, 66 days post planting): 1.00
- Fertility score ([1]; 30 DPP + 10 D, 70 days post planting): 1.00
- Fertility score ([1]; 30 DPP + 10 D, 75 days post planting): 1.00
- Fertility score ([1]; 30 DPP + 10 D, 80 days post planting): 1.25
- Fertility score ([1]; 30 DPP + 10 D, 85 days post planting): 1.25
- Fertility score ([1]; 30 DPP + 10 D, 90 days post planting): 1.25
- Fertility score ([1]; 30 DPP + 10 D, 104 days post planting): 1.25
- Fertility score ([1]; 30 DPP + 20 D (sprays from 30 DPP every 20 days), 2% Roundup about 64 oz/acre, 58 days post planting): 1.00
- Fertility score ([1]; 30 DPP + 20 D, 62 days post planting): 1.75
- Fertility score ([1]; 30 DPP + 20 D, 66 days post planting): 2.5
- Fertility score ([1]; 30 DPP + 20 D, 70 days post planting): 2.75
- Fertility score ([1]; 30 DPP + 20 D, 75 days post planting): 2.5
- Fertility score ([1]; 30 DPP + 20 D, 80 days post planting): 1.75
- Fertility score ([1]; 30 DPP + 20 D, 85 days post planting): 1.75
- Fertility score ([1]; 30 DPP + 20 D, 90 days post planting): 1.50
- Fertility score ([1]; 30 DPP + 20 D, 104 days post planting): 1.50
- Fertility score ([1]; 30 DPP single spray, 62 days post planting): 3.00
- Fertility score ([1]; 30 DPP single spray, 66 days post planting): 3.75
- Fertility score ([1]; 30 DPP single spray, 70 days post planting): 4.00
- Fertility score ([1]; 30 DPP single spray, 75 days post planting): 4.25
- Fertility score ([1]; 30 DPP single spray, 80 days post planting): 4.50
- Fertility score ([1]; 30 DPP single spray, 85 days post planting): 5.00
- Fertility score ([1]; 30 DPP single spray, 90 days post planting): 5.00
- Fertility score ([1]; 30 DPP single spray, 104 days post planting): 5.00
- Adverse effects of the multiple sprays (other than male sterility) ([1]; throughout the season, about 64 oz/acre): No adverse effects
- Induction of male sterility ([1]; treatment 2 (30 DPP+10 D), about 64 oz/acre): adequate to induce sterility
- Induction of male sterility ([1]; treatment 3 (30 DPP+20 D), about 64 oz/acre): adequate to induce sterility
- Boll set of hand pollinated flowers (female sterility) [2]: practically all hand pollinated flowers had not set viable bolls
- Female sterility ([3]; 24 oz/acre rate at roughly 10 day intervals (best effect)): minimal or no female sterility
- Male sterility ([3]; all rates used: 16, 24 and 32 ounces/acre, 14 day intervals from 31 days post planting): produced male sterility
- Boll and hybrid seed set after hand pollination ([3]; all the spray rates tested (16, 24, 32 oz/acre)): Full, mature bolls bearing hybrid seed were produced
- Level of male sterility induced ([3]; both varieties PM 2200 RR and PM 2326 RR, small varietal difference): adequate for hybrid production
- Male sterility (assessed from yield) ([4]; 13.5 to 52 oz/acre): complete male-sterility was not achieved
- Average Difference from Control ([4]; application rate 13.5 oz./acre): 2.05 oz./acre
- Yield ([4]; application rate 13.5 oz./acre): 32.53 bu/acre
- Average Difference from Control ([4]; application rate 26 oz./acre): 8.30 oz./acre
- Yield ([4]; application rate 26 oz./acre): 26.28 bu/acre
- Average Difference from Control ([4]; application rate 52 oz./acre): 8.65 oz./acre
- Yield ([4]; application rate 52 oz./acre): 25.93 bu/acre
- Male sterility (assessed from yield) ([5]; 13.5 to 52 oz/acre): complete male-sterility was not achieved
- Average Difference from Control ([5]; application rate 13.5 oz./acre): 1.23 oz./acre
- Yield ([5]; application rate 13.5 oz./acre): 36.45 bu/acre
- Average Difference from Control ([5]; application rate 26 oz./acre): 9.65 oz./acre
- Yield ([5]; application rate 26 oz./acre): 28.03 bu/acre
- Average Difference from Control ([5]; application rate 52 oz./acre): 10.18 oz./acre
- Yield ([5]; application rate 52 oz./acre): 27.50 bu/acre
- Male sterility (assessed from yield) ([6]; 13.5 to 52 oz/acre): complete male-sterility was not achieved
- Average Difference from Control ([6]; application rate 13.5 oz./acre): 4.05 oz./acre
- Yield ([6]; application rate 13.5 oz./acre): 35.95 bu/acre
- Average Difference from Control ([6]; application rate 26 oz./acre): 8.27 oz./acre
- Yield ([6]; application rate 26 oz./acre): 31.73 bu/acre
- Average Difference from Control ([6]; application rate 52 oz./acre): 11.55 oz./acre
- Yield ([6]; application rate 52 oz./acre): 28.45 bu/acre
